# Experiments:
# [1] = target: T1, ceramide kinase (CERK), human (Homo sapiens, UniProt Q8TCT0); assay: in vitro CERK activity assay; format: biochemical
# T1 sequence (Q8TCT0 1-537): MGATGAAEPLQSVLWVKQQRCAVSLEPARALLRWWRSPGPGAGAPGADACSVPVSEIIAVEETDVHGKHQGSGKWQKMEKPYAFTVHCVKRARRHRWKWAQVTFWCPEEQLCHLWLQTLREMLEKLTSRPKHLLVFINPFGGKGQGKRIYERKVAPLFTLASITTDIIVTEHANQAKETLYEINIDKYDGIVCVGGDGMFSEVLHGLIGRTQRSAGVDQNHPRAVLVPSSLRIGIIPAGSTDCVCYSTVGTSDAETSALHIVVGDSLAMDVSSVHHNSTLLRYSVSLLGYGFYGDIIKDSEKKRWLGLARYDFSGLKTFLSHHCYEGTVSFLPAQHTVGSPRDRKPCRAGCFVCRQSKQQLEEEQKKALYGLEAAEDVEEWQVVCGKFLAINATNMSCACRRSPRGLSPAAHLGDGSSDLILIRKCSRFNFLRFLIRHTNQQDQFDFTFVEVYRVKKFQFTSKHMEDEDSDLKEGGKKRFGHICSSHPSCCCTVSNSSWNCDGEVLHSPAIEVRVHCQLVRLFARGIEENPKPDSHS
# [2] = target: T2, ceramide kinase (CERK), mouse (Mus musculus, UniProt Q8K4Q7); assay: in vitro CERK activity assay; format: biochemical
# T2 sequence (Q8K4Q7 1-531): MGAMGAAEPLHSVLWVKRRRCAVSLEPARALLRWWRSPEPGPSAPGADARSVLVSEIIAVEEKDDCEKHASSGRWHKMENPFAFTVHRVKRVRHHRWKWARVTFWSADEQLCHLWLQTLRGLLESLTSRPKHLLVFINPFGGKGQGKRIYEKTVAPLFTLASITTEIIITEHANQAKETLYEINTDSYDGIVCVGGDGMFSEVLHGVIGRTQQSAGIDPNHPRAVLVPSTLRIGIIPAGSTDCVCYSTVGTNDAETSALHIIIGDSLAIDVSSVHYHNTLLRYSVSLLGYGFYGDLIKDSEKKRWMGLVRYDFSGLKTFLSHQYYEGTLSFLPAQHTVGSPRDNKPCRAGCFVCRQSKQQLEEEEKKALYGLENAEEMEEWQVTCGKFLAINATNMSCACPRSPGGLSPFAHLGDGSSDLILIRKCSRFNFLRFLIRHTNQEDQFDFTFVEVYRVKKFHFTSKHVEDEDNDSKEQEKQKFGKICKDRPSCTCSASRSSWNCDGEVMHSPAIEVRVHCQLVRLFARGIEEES
# [3] = target: T2, ceramide kinase (CERK), mouse; assay: C1P product levels by UPLC ESI-MS/MS in mouse dermal fibroblasts, […]; format: cell-based
IC50 [1],IC50 [2],Molecule,"C1P product levels by UPLC ESI-MS/MS in mouse dermal fibroblasts, 100 nM [3]"
5 nM,9 nM,SYR382141,–
–,–,"O=C(Nc1nc2ccc(NC(=O)C34CC5CC(CC(C5)C3)C4)cc2s1)c1ccccc1 [NVP-231, N-[2-(Benzoylamino)-6-benzothiazolyl]tricyclo[3.3.1.13,7]decane-1-carboxamide]",significantly reduced by SYR382141 in pDFs to an equivalent or greater extent as NVP-231
